# From patent US11692164B2, “Antibiotic-free compositions for the prevention or control of coccidiosis” (Huvepharma Inc., priority 2017, dated 2023)
# Read-outs that look alike come from different tables or passages of the source.
# How the values were obtained:
# E. maxima oocysts [1] = assay: Effect of disinfectants at minimal inhibitory concentration on E. maxima oocyst viability; assay type: cell-based, Eimeria maxima
# Description: (§1) In this example, additional disinfectant compounds were tested for their ability to inhibit microbial growth in Eimeria oocyst samples as compared to formalin. E. maxima oocysts were spiked with B. subtilis and P. chrysogenum, and the minimal inhibitory concentrations of several disinfectants were determined. The disinfectants were then added to E. maxima oocysts and the oocysts were stored at 2-7° C. for 6 months. The oocysts were assayed for viability and the decrease in viability due to the disinfectant was calculated by comparison to the same lot of oocysts stored in 0.5×PBS only. Exemplary results are summarized below in Table 5.
# [2] = tested on: B. subtilis and P. chrysogenum; assay: Minimal inhibitory concentration of disinfectants in E. maxima oocysts spiked with B. subtilis and P. chrysogenum; assay type: cell-based, Bacillus subtilis and Penicillium chrysogenum
# Description: as §1
# [3] = tested on: Vaccine Serial (E. acervulina, E. maxima and E. tenella oocysts); conditions: storage at 2-7° C.
# Eimeria maxima oocysts = conditions: 0.675% formalin; stored 2 weeks at 2-7° C.; compared to same lot of oocysts stored with 0% formalin
# E. acervulina oocysts = conditions: storage at 2-7° C.
# Description: (§2) The effect of formalin on oocyst viability was investigated using oocyst lots of each Eimeria species (E. acervulina, E. maxima and E. tenella) and on vaccine. Viability was determined initially prior to the addition of formalin, and then after 1 year of storage at 2-7° C.
# E. tenella oocysts = conditions: storage at 2-7° C.
# Description: as §2
# E. maxima oocysts [4] = conditions: storage at 2-7° C.
# Description: as §2
# [5] = tested on: Eimeria acervulina oocysts; conditions: 0.1% formalin; stored 4 months at 2-7° C.; compared to same lot of oocysts stored with 0% formalin
Compound,"Decrease in Viability (E. maxima oocysts [1]; disinfectant at minimal inhibitory concentration, 6 months of storage at 2-7 C., compared to same lot stored with 0% disinfectant (0.5×PBS only)) [%]",Minimal Inhibitory Concentration [2] [%],"% Viable Oocysts after Storage for 12 Months, Vaccine Serial 12 mo ([3]; formalin concentration 0.0028) [%]","% Viable Oocysts after Storage for 12 Months, Vaccine Serial 12 mo ([3]; formalin concentration 0.0071) [%]",Decrease in Viability (Eimeria maxima oocysts) [%],"% Viable Oocysts after Storage for 12 Months, E. acervulina 12 mo (E. acervulina oocysts; formalin concentration 0.010) [%]","% Viable Oocysts after Storage for 12 Months, E. acervulina 12 mo (E. acervulina oocysts; formalin concentration 0.025) [%]","% Viable Oocysts after Storage for 12 Months, E. tenella 12 mo (E. tenella oocysts; formalin concentration 0.010) [%]","% Viable Oocysts after Storage for 12 Months, E. tenella 12 mo (E. tenella oocysts; formalin concentration 0.025) [%]","% Viable Oocysts after Storage for 12 Months, E. maxima 12 mo (E. maxima oocysts [4]; formalin concentration 0.010) [%]","% Viable Oocysts after Storage for 12 Months, E. maxima 12 mo (E. maxima oocysts [4]; formalin concentration 0.025) [%]",Decrease in Viability [5] [%],Decrease in Viability (E. maxima oocysts [1]) [%]
CC(C)=CCCC(C)=CC=O [Citral],24,0.0125,–,–,–,–,–,–,–,–,–,–,–
"C=O [Formalin, formaldehyde]",–,–,83,84,49,59,27,95,86,47,41,37,–
Cc1ccc(C(C)C)c(O)c1 [Thymol],–,0.0063,–,–,–,–,–,–,–,–,–,–,15
